From patent US11485987B2, “Methods for inducing bioorthogonal reactivity” (University of Delaware, priority 2015, dated 2022)

Columns and labels:
[1] = Dihydrotetrazine oxidative stability (UV-vis); assay type: physicochemical
Excerpt: A challenge to the development of catalytic methods for turning on the tetrazine ligation was the identification of a DHTz/Tz pair that would be stable in both oxidation states (FIG. 1, panel B). For most redox couples, either the DHTz is too readily oxidized in air (e.g., 1), or the Tz is too reactive toward water and other nucleophiles (e.g., 2). The inventors show here that the dipyridyl DHTz/Tz pair (3/4) has good stability in both states (FIG. 1, panel C). Dihydrotetrazines 3 are highly resistant toward background oxidation in organic solvents, and a number of derivatives have been synthesized and shown stable even to silica gel chromatography. […] Aqueous solutions of 3a were handled in glassware that had been first rinsed with 2.0 mM EDTA in PBS to remove adventitious metal impurities. After standing in the dark at 25° C. in PBS buffer, a solution of 3a was monitored by UV-vis and shown to retain 99 and 96% of the DHTz oxidation state over 30 min and 2.5 hours respectively. […] In PBS containing 10% mouse serum, 90% of 3a was retained in the DHTz oxidation state after 1 h. Analogs of tetrazines 4 have been described previously and used broadly for applications in nuclear medicine and cell imaging. […] The stability of a radiolabeled derivative of tetrazine 4b has been studied by Robillard at 37° C. in PBS, serum and blood, with 97%, 87% and 59% retention of the tetrazine observed after 2 hours.
A solution (3 mL) containing 3a (35 μM) in PBS buffer was prepared in a cuvette from stock solutions. Oxidation was monitored by recording solution absorbance at 0, 30 and 150 minutes. The cuvette was stored in the dark between measurements. Comparison of HRP, cytochrome C and hemoglobin: Solutions (1 mL) of 3a (30 μM) in PBS buffer were prepared in a cuvette from stock solutions. To the solutions, either hemoglobin ([…]) or cytochrome C (9 μM) were added and while oxidation was monitored every 30 seconds by measuring absorbance at 325 nm.

[2] = DHTz stability in PBS containing 10% mouse serum; assay type: in vitro ADME; details: 1 h
Excerpt: A challenge to the development of catalytic methods for turning on the tetrazine ligation was the identification of a DHTz/Tz pair that would be stable in both oxidation states (FIG. 1, panel B). For most redox couples, either the DHTz is too readily oxidized in air (e.g., 1), or the Tz is too reactive toward water and other nucleophiles (e.g., 2). The inventors show here that the dipyridyl DHTz/Tz pair (3/4) has good stability in both states (FIG. 1, panel C). Dihydrotetrazines 3 are highly resistant toward background oxidation in organic solvents, and a number of derivatives have been synthesized and shown stable even to silica gel chromatography. […] Aqueous solutions of 3a were handled in glassware that had been first rinsed with 2.0 mM EDTA in PBS to remove adventitious metal impurities. After standing in the dark at 25° C. in PBS buffer, a solution of 3a was monitored by UV-vis and shown to retain 99 and 96% of the DHTz oxidation state over 30 min and 2.5 hours respectively. […] In PBS containing 10% mouse serum, 90% of 3a was retained in the DHTz oxidation state after 1 h. Analogs of tetrazines 4 have been described previously and used broadly for applications in nuclear medicine and cell imaging. […]

In the case of `O=C(O)CCC(=O)Nc1ccc(C2=NNC(c3ccccn3)=NN2)nc1` [3a, 4-oxo-4-((6-(6-(pyridin-2-yl)-1,4-dihydro-1,2,4,5-tetrazin-3-yl)pyridin-3-yl)amino)butanoic Acid], the “retained DHTz oxidation state” value ([1]; 35 μM in MeOH, ambient light, 1 hour) is reported as 99%, the “retained DHTz oxidation state” value ([1]; 35 μM in MeOH, ambient light, 2 hours) is reported as 98% and the “retained DHTz oxidation state” value ([1]; PBS buffer, ambient light, 25° C., 1 hour) is reported as 97%. For the same compound, the “retained DHTz oxidation state” value ([1]; PBS buffer, ambient light, 25° C., 2 hours) was 94%, the “retained DHTz oxidation state” value ([1]; PBS buffer, dark, 25° C., 30 min) was 99% and the “retained DHTz oxidation state” value ([1]; PBS buffer, dark, 25° C., 2.5 hours) was 96%. For the same compound, the “retained in the DHTz oxidation state” value [2] was 90%.
